# Assay results as given in ChEMBL document CHEMBL1201862, “PubChem BioAssay data set” (2004).
# The source made the active and inactive calls.
# How the values were obtained:
# [1] = target: T1, DNA repair protein RAD52 homolog (Homo sapiens, UniProt P43351); format: functional, biochemical
# T1 sequence (P43351 whole entry): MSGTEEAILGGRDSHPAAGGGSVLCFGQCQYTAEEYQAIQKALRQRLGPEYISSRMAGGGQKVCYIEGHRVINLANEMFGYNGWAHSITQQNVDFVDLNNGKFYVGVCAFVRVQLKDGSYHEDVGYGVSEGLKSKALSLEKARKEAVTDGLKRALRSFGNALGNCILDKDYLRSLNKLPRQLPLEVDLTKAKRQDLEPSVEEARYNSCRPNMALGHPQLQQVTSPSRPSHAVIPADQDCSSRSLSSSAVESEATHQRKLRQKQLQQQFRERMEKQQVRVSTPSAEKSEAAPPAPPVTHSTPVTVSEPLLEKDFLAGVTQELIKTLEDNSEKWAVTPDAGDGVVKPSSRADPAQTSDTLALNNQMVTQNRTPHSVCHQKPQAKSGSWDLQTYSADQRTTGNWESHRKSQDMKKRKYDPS
# [2] = target: T2, Long-chain-fatty-acid--AMP ligase FadD28 (Mycobacterium tuberculosis, UniProt P9WQ59); test: Fluorescence polarization aasay to screen for inhibitors that compete for the binding of FadD28 to a bisubstrate Measured in Biochemical System Using Plate Reader - 2147-01_Inhibitor_Dose_CherryPick_Activity.; format: functional, Mycobacterium tuberculosis H37Rv
# T2 sequence (P9WQ59 whole entry): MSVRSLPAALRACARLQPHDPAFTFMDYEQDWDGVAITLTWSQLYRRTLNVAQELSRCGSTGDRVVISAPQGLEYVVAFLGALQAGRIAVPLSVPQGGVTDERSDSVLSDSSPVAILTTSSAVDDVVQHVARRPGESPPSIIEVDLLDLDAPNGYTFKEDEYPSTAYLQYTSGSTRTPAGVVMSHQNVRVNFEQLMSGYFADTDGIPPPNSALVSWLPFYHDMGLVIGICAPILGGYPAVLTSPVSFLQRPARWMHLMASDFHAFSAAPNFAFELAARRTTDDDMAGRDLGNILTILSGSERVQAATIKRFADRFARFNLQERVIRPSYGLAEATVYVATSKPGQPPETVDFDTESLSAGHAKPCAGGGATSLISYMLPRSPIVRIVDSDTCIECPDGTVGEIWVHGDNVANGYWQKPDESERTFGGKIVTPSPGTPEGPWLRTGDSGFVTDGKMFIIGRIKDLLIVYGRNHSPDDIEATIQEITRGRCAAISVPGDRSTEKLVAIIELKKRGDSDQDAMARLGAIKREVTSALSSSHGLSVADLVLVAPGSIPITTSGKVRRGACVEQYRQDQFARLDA
# Genome polyprotein = Genome polyprotein (dengue virus type 2, UniProt P29990); test: flavivirus cap methylation enzyme inhibition – biochemical, confirmation dose response, primary screen (AID 588689); format: functional
# Chain of Genome polyprotein (P29990 2492-3391 limits assumed): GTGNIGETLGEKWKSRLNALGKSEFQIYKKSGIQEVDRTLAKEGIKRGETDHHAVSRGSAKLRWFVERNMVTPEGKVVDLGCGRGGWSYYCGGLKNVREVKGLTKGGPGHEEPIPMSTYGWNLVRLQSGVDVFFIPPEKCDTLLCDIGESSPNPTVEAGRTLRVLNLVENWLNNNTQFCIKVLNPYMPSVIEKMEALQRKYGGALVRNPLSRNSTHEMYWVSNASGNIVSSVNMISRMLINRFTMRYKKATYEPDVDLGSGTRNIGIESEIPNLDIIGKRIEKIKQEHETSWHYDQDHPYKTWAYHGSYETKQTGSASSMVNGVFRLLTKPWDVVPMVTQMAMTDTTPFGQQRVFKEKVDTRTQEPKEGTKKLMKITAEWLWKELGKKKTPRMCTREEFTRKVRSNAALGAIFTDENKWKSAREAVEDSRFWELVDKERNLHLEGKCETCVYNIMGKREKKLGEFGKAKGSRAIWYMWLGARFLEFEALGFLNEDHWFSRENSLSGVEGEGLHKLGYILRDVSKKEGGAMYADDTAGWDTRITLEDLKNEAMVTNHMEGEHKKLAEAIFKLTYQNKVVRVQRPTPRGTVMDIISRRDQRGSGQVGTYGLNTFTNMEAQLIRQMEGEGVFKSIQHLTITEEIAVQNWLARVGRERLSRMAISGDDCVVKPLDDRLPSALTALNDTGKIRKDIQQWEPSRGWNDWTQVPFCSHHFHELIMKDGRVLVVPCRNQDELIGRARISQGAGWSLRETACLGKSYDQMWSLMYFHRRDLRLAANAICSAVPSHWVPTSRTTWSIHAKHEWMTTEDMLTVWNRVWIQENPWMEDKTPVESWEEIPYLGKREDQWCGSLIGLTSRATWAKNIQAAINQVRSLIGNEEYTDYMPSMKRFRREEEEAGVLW
# Protein Wnt-3a = Protein Wnt-3a (Mus musculus, UniProt P27467); test: antagonism of Wnt3a pathway luciferase reporter – Wnt-LIGHT cells, luminescence, selectivity assay for Gli-SUFU antagonist project, dose response (AID 651570); format: functional; details: read-out: IC50_Mean;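 note: Wnt-LIGHT reporter cells stimulated with conditioned medium from Wnt3a-producing cells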
# Chain of Protein Wnt-3a (P27467 whole entry): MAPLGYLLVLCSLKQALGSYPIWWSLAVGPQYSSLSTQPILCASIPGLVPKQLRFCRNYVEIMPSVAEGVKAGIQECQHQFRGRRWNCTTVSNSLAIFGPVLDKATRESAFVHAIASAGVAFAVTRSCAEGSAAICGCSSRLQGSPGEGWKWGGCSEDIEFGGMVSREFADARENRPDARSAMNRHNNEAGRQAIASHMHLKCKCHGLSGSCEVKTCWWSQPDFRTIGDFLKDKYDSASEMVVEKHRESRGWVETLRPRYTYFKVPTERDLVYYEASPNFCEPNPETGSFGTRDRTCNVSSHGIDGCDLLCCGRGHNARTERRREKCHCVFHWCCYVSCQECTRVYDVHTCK
# [3] = target: T3, Corticotropin-releasing factor receptor 2/Corticotropin-releasing factor-binding protein (Homo sapiens, UniProt P24387+Q13324); test: activators of CRF receptor 2 with binding protein – uHTS hits, confirmation (AID 602473); format: functional; details: read-out: EC50_Mean
# T3 sequence (Q13324 whole entry): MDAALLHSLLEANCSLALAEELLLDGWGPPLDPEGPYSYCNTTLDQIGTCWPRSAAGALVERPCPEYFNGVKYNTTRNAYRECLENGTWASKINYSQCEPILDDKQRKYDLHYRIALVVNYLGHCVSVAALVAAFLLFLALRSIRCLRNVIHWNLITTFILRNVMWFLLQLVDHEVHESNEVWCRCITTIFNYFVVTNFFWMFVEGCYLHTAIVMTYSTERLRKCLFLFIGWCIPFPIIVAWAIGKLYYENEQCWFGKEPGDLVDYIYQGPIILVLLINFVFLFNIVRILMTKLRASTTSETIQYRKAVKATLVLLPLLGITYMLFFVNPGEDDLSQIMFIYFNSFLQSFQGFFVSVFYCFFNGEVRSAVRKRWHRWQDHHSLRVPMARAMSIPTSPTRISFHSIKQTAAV
# T3 sequence (P24387 whole entry): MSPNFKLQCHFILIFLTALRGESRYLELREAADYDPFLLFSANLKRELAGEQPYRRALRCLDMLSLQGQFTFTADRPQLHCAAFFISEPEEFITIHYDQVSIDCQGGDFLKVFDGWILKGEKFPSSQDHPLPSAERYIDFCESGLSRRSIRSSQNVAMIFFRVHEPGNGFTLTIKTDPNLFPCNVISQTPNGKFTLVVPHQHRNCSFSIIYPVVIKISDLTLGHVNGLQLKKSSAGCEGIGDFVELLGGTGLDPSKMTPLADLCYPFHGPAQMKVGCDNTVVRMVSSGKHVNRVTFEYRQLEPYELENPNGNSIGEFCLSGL
# [4] = fluconazole-exposed Candida albicans growth modulators – fluorescence, retest, confirmation (AID 2467); format: functional, cell-based
# [5] = NIH-3T3 fibroblast cytotoxicity, dose response, cytotoxicity control, cell-based, fluorescence, Alamar Blue, secondary assay (AID 2327); format: functional;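 note: NIH-3T3 mouse fibroblasts cultured with fluconazole at 8 µg/mL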
# [6] = target: T4, Adenosylmethionine-8-amino-7-oxononanoate aminotransferase (Mycobacterium tuberculosis, UniProt P9WQ81); test: Mycobacterium tuberculosis BioA enzyme inhibitor Measured in Biochemical System Using Plate Reader - 2163-02_Inhibitor_Dose_CherryPick_Activity.; format: functional, Mycobacterium tuberculosis UT205
# T4 sequence (P9WQ81 whole entry): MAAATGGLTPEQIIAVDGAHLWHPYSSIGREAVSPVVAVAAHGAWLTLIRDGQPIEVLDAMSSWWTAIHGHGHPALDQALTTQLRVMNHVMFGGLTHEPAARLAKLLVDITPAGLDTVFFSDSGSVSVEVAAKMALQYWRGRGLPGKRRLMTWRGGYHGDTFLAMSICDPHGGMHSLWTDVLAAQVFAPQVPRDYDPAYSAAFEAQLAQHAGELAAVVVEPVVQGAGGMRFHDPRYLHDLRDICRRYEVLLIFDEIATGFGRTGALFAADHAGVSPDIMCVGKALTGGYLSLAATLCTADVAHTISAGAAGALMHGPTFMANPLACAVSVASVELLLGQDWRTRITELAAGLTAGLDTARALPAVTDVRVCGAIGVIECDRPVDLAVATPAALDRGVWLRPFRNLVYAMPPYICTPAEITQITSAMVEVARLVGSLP
# [7] = non-specific 3'UTR reporter inhibition in Clone20-Shn3RL – cell-based, Renilla luciferase, cherry-picked, counter-screen for Shn3 inhibitor project, dose response (AID 624133); format: functional
# [8] = reduction of Shn3 3'UTR-driven luciferase in osteoblasts – cell-based, Clone20 osteoblasts, firefly luciferase, cherry-picked, dose response (AID 624132); format: functional;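 note: firefly luciferase luminescence from reporter carrying the Shn3 3'UTR in osteoblasts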
# [9] = blockers of HIV-1 ZM109 envelope-driven cell-cell fusion – HeLa effector, CEM target cells, luciferase, cherry-pick, dose response (AID 652058); format: functional, cell-based;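 note: luciferase signal from HIV-1 Env mediated cell-cell fusion of effector and target cells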
# [10] = off-target signal loss in HeLa-CEM21 co-culture – HeLa F-luc CTL cells, cherry-picked, counter-screen for HIV-1 Env fusion inhibitor project, dose response (AID 652040); format: functional, cell-based;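 note: potency for signal decrease marking cytotoxic or nonspecific inhibition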
# [11] = blockers of HIV-1 envelope-mediated cell-cell fusion – cherry-pick, dose response (AID 652057); format: functional, cell-based
# [12] = HIV-1 AD8 envelope cell-cell fusion blockers – cherry-pick, dose response (AID 652062); format: functional, cell-based;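 note: luciferase signal from cell-cell fusion driven by HIV-1 clade B AD8 Env; potency is for inhibitors of fusion seen as a drop in luminescence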
# [13] = intracellular Trypanosoma cruzi inhibitors in host cells – cell-based, plate reader, cherry-pick samples, set 3, dose response (AID 651818); format: functional;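 note: compounds incubated with infected cells for about four days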
compound,measurement,setting,value
CCN(CC)CCN(Cc1cc2cc3c(cc2nc1O)OCCO3)C(S)=NCCCN(C)C,AC50,[1],12.9 µM (active)
O=C(O)c1[nH]c2ccccc2c1C(c1ccccc1)c1c(C(=O)O)[nH]c2ccccc12,AC50,[2],36.5 µM (active)
same,IC50,Genome polyprotein,16.7 µM (active)
CC(C)Cc1ccc(C(C)C(=O)Nc2cccnc2)cc1 (stereo not given),IC50,Protein Wnt-3a,5.34 µM (active)
same,EC50,[3],> 53 µM (inactive)
C[N+]1(CC(=O)OC2CCCCCCCCCCC2)CCCC1,IC50,Protein Wnt-3a,28 µM (inactive)
same,EC50,[4],1.65 µM (active)
same,EC50,[5],> 150 µM (inconclusive)
O=C(O)COc1ccccc1-c1nc(-c2ccccc2)c(-c2ccccc2)[nH]1,AC50,[2],> 100 µM (inactive)
O=C(CSc1nc2c(c(=O)n1-c1ccccc1)SCC2)N1CCN(c2ccccc2)CC1,AC50,[6],1.08 µM (active)
CCC(CC)CN1C(N(C)C)=NC[C@@H]1CC(C)C,IC50,Protein Wnt-3a,5.72 µM (active)
same,AC50,[7],1.84 µM (active)
same,AC50,[8],0.717 µM (active)
N#CC1=C(N)N(c2ccccc2)C(c2ccco2)C1(C#N)C#N (stereo not given),AC50,[2],> 100 µM (inactive)
O=C(CSc1nc2ccccc2c(=O)n1-c1ccccc1)N1CCN(CCO)CC1,AC50,[6],12.3 µM (active)
C[C@@]12C(=O)N(CC3CCCO3)CC(=O)N1[C@H]1c3cc(Cl)ccc3OC[C@@H]1[C@@H]2c1ccccc1 (stereo not given in full),AC50,[9],2.64 µM (active)
same,AC50,[10],2.05 µM (active)
same,AC50,[11],1.34 µM (active)
same,AC50,[12],2.52 µM (active)
COc1cccc(NC(=O)CN(C)C(=O)c2ccc(S(=O)(=O)Nc3ccccc3C)cc2)c1,AC50,[2],> 100 µM (inactive)
C[C@@H]1CN([C@@H](C)CO)C(=O)c2cccc(NC(=O)C3CCCCC3)c2O[C@@H]1CN(C)Cc1ccc(C(=O)Nc2ccccc2N)cc1,AC50,[13],1.33 µM (active)
Cc1ccc(S(=O)(=O)Nc2ccc3c(c2)CC(=O)N([C@H](C)CO)C[C@@H](C)[C@@H](CN(C)S(=O)(=O)c2cccs2)O3)cc1,AC50,[13],2.5 µM (active)
CO[C@H]1CN(C)C(=O)c2ccc(NC(C)=O)cc2OC[C@@H](C)N(C(=O)c2ccc(F)cc2)C[C@H]1C,AC50,[6],11.5 µM (active)
C[C@H]1CN([C@@H](C)CO)C(=O)c2cccc(NC(=O)c3ccncc3)c2O[C@H]1CN(C)Cc1ccc(Cl)c(Cl)c1,AC50,[13],0.08 µM (active)
C[C@H](CO)N1C[C@H](C)[C@H](CN(C)C(=O)Nc2cccc3ccccc23)Oc2c(NC(=O)c3ccncc3)cccc2C1=O,AC50,[13],3.57 µM (active)
COCCNC(=O)C[C@@H]1CC[C@@H]2[C@H](COc3ccc(NC(=O)Nc4cccc(F)c4)cc3C(=O)N2C)O1,AC50,[6],4.17 µM (active)
CC(=O)Nc1cc(-c2ccc(N3CCN(C)CC3)cc2)cn2c(-c3cccc(C(=O)N(C)C)c3)cnc12,AC50,[1],8.58 µM (active)
CO[C@H](C(=O)N(C)C[C@@H]1OCc2ccccc2-c2c(n(C)c3ccccc23)C(=O)N([C@H](C)CO)C[C@@H]1C)c1ccccc1,AC50,[9],10.2 µM (active)
same,AC50,[10],15.4 µM (active)
same,AC50,[11],6.28 µM (active)
same,AC50,[12],6.84 µM (active)
CCCC[C@H](CN(N=O)[C@@H](Cc1ccccc1)CN(C)N=O)N(CCc1ccccc1)N=O,AC50,[9],8.46 µM (active)
same,AC50,[10],6.02 µM (active)
same,AC50,[11],3.32 µM (active)
same,AC50,[12],20.6 µM (active)
